Data published in publication PMC12735718, “Novel Adamantane–Sclareol Hybrids Exploit ROS Vulnerability to Overcome Multidrug-Resistance in Glioblastoma Cells” (Molecules, 2025).
Blank lines part the entries; values can stand above or below the molecule they belong to.

Legend:
[1] = test system: H2O2 and peroxynitrite anion levels in U87 cells; assay: ROS detection by DHR, U87; assay type: cell-based, human; conditions: 4 µM, 24 h and 48 h
Procedure: The levels of ROS were measured in U87 and U87-TxR cells by flow cytometry. The production of superoxide anions was detected using DHE fluorescence dye, while production of H2O2 and peroxynitrite anions was detected using DHR fluorescence dye. Cells were seeded in 6-well plates (150,000 cell/well) and incubated overnight. The cells were then treated with compounds 2 or 5 (4 μM) for 24 h and 48 h. CDDP (10 μM) was used as a positive control. After the treatment period, the cells were stained with DHE or DHR for 30 min in the dark. Following incubation, cells were harvested with trypsinization and washed twice in cold phosphate buffer solution (PBS). Fluorescence was measured on a CytoFlex flow cytometer (Beckman Coulter, Indianapolis, IN, USA). Green fluorescence from the oxidized DHR dye was detected at 525 nm, while the red fluorescence from ethidium derived from DHE was detected at 585 nm. At least 10,000 events were assayed for each sample. The results were analyzed by CytExpert 2.4.0.28 software (Beckman Coulter, Indianapolis, IN, USA).

U87-TxR cells = assay: Cell death detection, AV/PI staining, U87-TxR; assay type: cell-based, human; conditions: 48 h; for cell death effect in MDR U87-TxR cells vs sensitive U87 cells: 4 µM, AV/PI; for percentage of early apoptotic cells vs untreated: 2 µM and 4 µM, particularly at 4 µM
Procedure: To evaluate the extent of cell death upon treatment with adamantane–sclareol hybrids, apoptotic, necrotic, and viable cell populations were assessed using dual staining with AV/PI. U87 and U87-TxR cells were seeded in 6-well plates at a density of 150,000 cells per well and incubated overnight. Subsequently, cells were treated with 2 and 5 (2 µM and 4 µM) for 48 h. At the end of the treatment period, cells were collected (both adherent and floating), washed, and incubated with AV/PI in binding buffer. Samples were analyzed using a CytoFLEX flow cytometer (Beckman Coulter, Indianapolis, IN, USA), with fluorescence signals detected at 525 nm (AV) and 585 nm (PI). At least 10,000 events were recorded per each condition. The percentages of viable (AV^− PI^−), early apoptotic (AV^+ PI^−), late apoptotic (AV^+ PI^+), and necrotic (AV^− PI^+) cells were calculated using CytExpert 2.4.0.28 software (Beckman Coulter, Indianapolis, IN, USA).

[2] = test system: TrxR (SH-SY5Y cell lysate); assay: Colorimetric detection of cell lysate TrxR activity (DTNB); assay type: biochemical, human; conditions: 50 µM, DTNB absorbance at 412 nm over 20 min
Source text: We further analyzed the potential of adamantane–sclareol hybrids to inhibit TrxR enzyme activity using a colorimetric assay for the detection of TrxR activity in cell lysates. This kinetic assay is based on the ability of TrxR to reduce its substrate 5,5ʹ-dithiobis(2-nitrobenzoic acid) (DTNB) to the yellow product 5-thio-2-nitrobenzoic acid (TNB) in the presence of NADPH. The absorbance of the produced TNB is considered equivalent to the enzymic activity of TrxR. In the kinetic assay, the absorbance of DTNB was measured over 20 min, resulting in a curve showing the dependence of absorbance on time.
TrxR enzyme activity in cell lysate was determined by the reduction of the TrxR substrate DTNB to the yellow product TNB in the presence of NADPH (Acros Organics, Thermo Fisher Scientific, Waltham, MA, USA). Lysate from human neuroblastoma SH-SY5Y cells was used for the TrxR assay. SH-SY5Y cells were grown to 80% confluence, washed twice with PBS, and detached using Hanks-based enzyme-free dissociation solution (Millipore, Billeri-ca, MA, USA). Collected cells were centrifuged at 2000 rpm for 3 min and rinsed in PBS buffer. After additional centrifugation, cells were lysed on ice using Lysis Buffer (50 mM Tris, 150 mM NaCl, 1 mM EDTA, 1% NP40, 0.1% SDS, 0.5% Na-deoxycholate, pH 7.8) containing protease inhibitor mix G (SERVA Electrophoresis GmbH, Heidelberg, Germany) and phosphatase inhibitor cocktail 3 (Sigma-Aldrich, Darmstadt, Germany). The cell lysates were centrifuged at 16,000× g for 15 min at 4 °C. The protein concentrations of the supernatants were determined using a Pierce^TM BCA protein assay kit (Thermo Fisher Scientific, Waltham, MA, USA). The reactions were run in 96-well plates, in a final volume of 100 μL, in 50 mM potassium phosphate buffer (pH 7.0) containing 50 μg of cell lysate proteins, 1 mM EDTA, 50 mM KCl, 0.2 mg/mL BSA, and 0.25 mM NADPH. […] Enzyme kinetics were monitored on an automated microplate reader (MultiskanSky, Thermo Fisher Scientific, Waltham, MA, USA) by measuring the increase in absorbance at 412 nm for 20 min. […]

U87 cells = assay: MTT cell viability assay, U87; assay type: cell-based; conditions: Homo sapiens, U-87 MG, 72 h treatment
Procedure: Cell viability was measured using the colorimetric MTT assay based on the reduction of MTT into formazan dye. Cell lines were seeded into 96-well cell culture plates (4000 cells/well) in appropriate medium. After overnight incubation, cells were treated with increasing concentrations of 1, 2, 3, 4, 5, and 6 (0.5, 1, 2, 4, and 8 µM). After 72 h treatment, MTT solution (4 mg/mL) was added and plates were incubated at 37 °C with 5% CO2 for 3 h. After incubation, formazan crystals were dissolved using 100 µL DMSO, resulting in a purple color. The absorbance was measured at 570 nm with a reference wavelength of 690 nm using an automated microplate reader (MultiskanSky, Thermo Scientific, USA). The IC50 values were determined by non-linear regression analysis in GraphPad Prism 8.0.2. software (GraphPad Software, Boston, MA, USA).

- IC50 (U87 cells): 2.59 ± 0.068 µM
SMILES: CC1(C)CCC[C@]2(C)[C@@H](CC[C@@](C)(O)/C=C/c3ccc(CNCCCCCCCCNCC45CC6CC(CC(C6)C4)C5)s3)[C@](C)(O)CC[C@@H]12 [Compound 2]
- H2O2 and peroxynitrite anion levels (DHR) [1]: slight or no increase
- cell death effect in MDR U87-TxR cells vs sensitive U87 cells (U87-TxR cells): significantly better effects in MDR U87-TxR cells
- percentage of early apoptotic cells vs untreated (U87-TxR cells): significant increase
- TrxR enzyme activity [2]: do not inhibit TrxR enzyme activity

SMILES: CC1(C)CCC[C@]2(C)[C@@H](CC[C@@](C)(O)/C=C/c3ccc(CNCCCCCCCCNCC45CC6CC(CC(C6)C4)C5)o3)[C@](C)(O)CC[C@@H]12 [Compound 5]
- H2O2 and peroxynitrite anion levels (DHR) [1]: slight or no increase
- cell death effect in MDR U87-TxR cells vs sensitive U87 cells (U87-TxR cells): significantly better effects in MDR U87-TxR cells
- percentage of early apoptotic cells vs untreated (U87-TxR cells): significant increase
- early apoptotic population (AV+ PI−) (U87-TxR cells; untreated cells 4.17%, Figure S3): 32.6%
- TrxR enzyme activity [2]: do not inhibit TrxR enzyme activity
- IC50 (U87 cells): 5.13 ± 0.139 µM
